Laboratory results reported in patent US5707615A, “Method of treating HIV infections with anti-viral formulations” (Merrell Pharmaceuticals Inc., priority 1997, dated 1998).
Read-outs that look alike come from different tables or passages of the source.

Columns and labels:
[1] = test system: HIV-I (RF); assay: Effect of treating HIV-I (RF)-infected cells (C8166) 24 hours post-infection (Example V, Table VII); settings: for P24 DAY 6 p.i. / SYNCYTIA/WELL DAY 2 / SYNCYTIA/WELL DAY 3: 10 μM; for activity at 10 µM: Human immunodeficiency virus 1, C8166, 144 h, read-out: P24 % CONTROL, 10 μM
Method: Cells were infected with strain RF or GB8 for 24 hours at 37° C. at a multiplicity of infection of 0.001. Cells were washed three times to remove residual virus and then replated into fresh growth medium. Cells were then treated for 24 and 48 hours post-infection (p.i.) with the indicated concentrations of test compounds. Syncytia and P24 antigen levels were determined on the indicated days p.i. by methods described before.

[2] = test system: HIV (Strain RF); assay: Anti-HIV activity in C8166 cells infected with HIV strain RF: syncytia and p24 (Example VI); assay type: cell-based; settings: for p24 % of VIRUS CONTROL: 2880 min
Method: Protocol: C8166 cells were infected with HIV (Strain RF) for 1 hour at room temperature to give a multiplicity of infection of approximately 0.01 infectious units per cell.

[3] = test system: HIV (Strain GB8); assay: JM cells infected with HIV strain GB8: syncytia and p24 (Example VII); assay type: cell-based; settings: for p24 3 days p.i.: supernatant screened at 1/100 dilution
Method: JM cells were infected with HIV (Strain GB8) to give approximately 200 syncytia/1×10^5 cells after 3 days; virus infection was for 1 hour at room temperature.

[4] = test system: HIV-I (GB8); assay: Pretreatment of JM cells and block of HIV-I (GB8) infection (Example IV); settings: pretreated overnight at 20 μg/mL
Method: JM cells were pretreated overnight at 37° C. with different compounds at 20 μg/mL or left untreated. The cells were washed 3 times in RPMI medium and then infected with HIV-I (GB8) for 2 hours at room temperature. The cells were again washed 3 times in RPMI medium and resuspended in fresh medium prior to being distributed into duplicate wells and incubated at 37° C. After 2 days syncytia were scored and the cell free supernatant fluid harvested and assayed for P24 viral core antigen using the Coulter™ HIV antigen assay.

[5] = test system: MT4 cells; assay: Toxicity to MT4 cells (TD50, Table IV, MTT); assay type: cell-based; settings: MT4 cells, 7 days, MTT
Method: (§1) Various oligomers were dissolved in RPMI and were then assayed for anti-HIV activity by making doubling dilutions of the solutions across a 96 well microtitre plate. To each well were then added 5×10^4 cells and 100 TCID50 of virus and the plates incubated at 37° C. for 7 days. MTT was added to each well and the plates incubated for a further 2 hours. The blue formazan crystals were dissolved using acidic isopropanol, and the absorbance measured at 540 nm.

[6] = test system: HIV strain RF; assay: Ability to prevent virus-induced cell death using MT4 cells and strain RF (Example III); assay type: cell-based; settings: MT4 cells, 7 days, MTT, 10080 min
Method: as §1

[7] = test system: GB8 virus in JM cells; assay: Virus infection of JM cells with GB8 in the presence of test compounds: syncytia and P24 (Example II); settings: for SYNCYTIA % / P24 %: % of control; for SYNCYTIA %: 2880 min; for P24 %: 5760 min
Method: Virus infection of JM cells was carried out in the presence of different concentrations of test compounds. JM cells (1×10^5) and 50-100 syncytial forming units of virus (GB8) were added to duplicate wells of a tissue culture plate containing 1 mL volumes of growth medium with or without drug. The plate was incubated for 2 days at 37° C. and then scored for the presence of syncytia. At the same time the cells were washed and the growth medium replaced. After a further two days incubation, the cell free supernatant fluids were harvested and assayed for levels of P24 viral core antigen using the Coulter™ HIV Antigen assay.

Cc1cn([C@H]2C[C@H](N=[N+]=[N-])[C@@H](CO)O2)c(=O)[nH]c1=O [AZT, reference compound]
P24 DAY 6 p.i. ([1]; addition 0 hours p.i.): 10000 pg/mL
SYNCYTIA/WELL DAY 2 ([1]; addition 0 hours p.i.): 0
SYNCYTIA/WELL DAY 3 ([1]; addition 0 hours p.i.): 0
P24 DAY 6 p.i. ([1]; addition 24 hours p.i.): 44000 pg/mL
activity at 10 µM ([1]; addition 0 hours p.i.): 1.1%
activity at 10 µM ([1]; addition 24 hours p.i.): 4.6%
p24 Day 2 ([2]; 0.1 μg/ml): neg
SYNCYTIA Day 2 ([2]; 1 μg/ml): 0
p24 Day 2 ([2]; 1 μg/ml): neg
activity at 0.1 µg/mL ([2]; Human immunodeficiency virus 1, C8166, 48 h, 0.1 μg/ml, read-out: p24 % of VIRUS CONTROL): 0%
activity at 1 µg/mL ([2]; Human immunodeficiency virus 1, C8166, 48 h, 1 μg/ml, read-out: p24 % of VIRUS CONTROL): 0%

Nc1ccn([C@H]2CC[C@@H](CO)O2)c(=O)n1 [ddC, reference compound]
MEAN SYNCYTIA 3 days p.i. ([3]; 0.01 μg/ml): 80
p24 3 days p.i. ([3]; 0.01 μg/ml): 5400 pg/mL
MEAN SYNCYTIA 3 days p.i. ([3]; 0.1 μg/ml): 2
p24 3 days p.i. ([3]; 0.1 μg/ml): neg
MEAN SYNCYTIA 3 days p.i. ([3]; 1 μg/ml): 0
p24 3 days p.i. ([3]; 1 μg/ml): neg
MEAN SYNCYTIA 3 days p.i. ([3]; 10 μg/ml): 0
p24 3 days p.i. ([3]; 10 μg/ml): neg
P24 DAY 6 p.i. ([1]; addition 0 hours p.i.): 13000 pg/mL
SYNCYTIA/WELL DAY 2 ([1]; addition 0 hours p.i.): 0
SYNCYTIA/WELL DAY 3 ([1]; addition 0 hours p.i.): 0
P24 DAY 6 p.i. ([1]; addition 24 hours p.i.): 420000 pg/mL
activity at 10 µM ([1]; addition 0 hours p.i.): 1.4%
activity at 10 µM ([1]; addition 24 hours p.i.): 44.2%

Dextran Sulfate [reference compound]
P24 [4]: 28710 pg/mL
MEAN SYNCYTIA ([4]; 2 days): 184
P24 % ([4]; % of control, 2880 min): 101%
SYNCYTIA % ([4]; % of control, 2880 min): 155%

poly[imino(2,5-disulfo-1,4-phenylene)iminocarbonyl], alpha-{[(4-methylphenyl)amino]carbonyl}-omega-[(4-methylphenyl)amino]- [Example 3B]
TD50 [5]: > 100 µg/mL
ED50 [6]: 1.7 µg/mL

poly[imino(3-sulfo-1,4-phenylene)-1,2-ethenediyl-(2-sulfo-1,4-phenylene)iminocarbonyl], alpha-{[(4-methylphenyl)aminocarbonyl}-omega-[(4-methylphenyl)amino- [Example 2A]
TD50 [5]: > 100 µg/mL
ED50 [6]: 1.9 µg/mL

poly[imino(3-sulfo-1,4-phenylene)-1,2-ethenediyl-(2-sulfo-1,4-phenylene)iminocarbonyl], alpha-{[(4-methylphenyl)aminocarbonyl}-omega-[(4-methylphenyl)amino- [Example 2B]
TD50 [5]: > 100 µg/mL
ED50 [6]: 2.5 µg/mL

poly[oxy(2,5-disulfo-1,4-phenylene)oxycarbonyl-1,4-phenylenecarbonyl]- [Example 7]
MEAN SYNCYTIA 3 days p.i. ([3]; 25 μg/ml): 43
p24 3 days p.i. ([3]; 25 μg/ml): neg
MEAN SYNCYTIA 3 days p.i. ([3]; 50 μg/ml): 24
p24 3 days p.i. ([3]; 50 μg/ml): neg
MEAN SYNCYTIA 3 days p.i. ([3]; 100 μg/ml): 7
p24 3 days p.i. ([3]; 100 μg/ml): neg
MEAN SYNCYTIA 3 days p.i. ([3]; 200 μg/ml): 0
p24 3 days p.i. ([3]; 200 μg/ml): neg
p24 Day 2 ([2]; 12 μg/ml): 3140 pg/mL
p24 % of VIRUS CONTROL ([2]; 12 μg/ml): 98%
p24 Day 2 ([2]; 25 μg/ml): 1450 pg/mL
p24 % of VIRUS CONTROL ([2]; 25 μg/ml): 45%
p24 Day 2 ([2]; 50 μg/ml): 870 pg/mL
p24 % of VIRUS CONTROL ([2]; 50 μg/ml): 27%
p24 Day 2 ([2]; 100 μg/ml): neg
p24 % of VIRUS CONTROL ([2]; 100 μg/ml): 0%

poly[oxy(2,5-disulfo-1,4-phenylene)oxycarbonyl], alpha-[(4-methylphenoxy)carbonyl]-omega-(4-methylphenoxy)- [Example 4]
MEAN SYNCYTIA 3 days p.i. ([3]; 25 μg/ml): 95
p24 3 days p.i. ([3]; 25 μg/ml): 6500 pg/mL
MEAN SYNCYTIA 3 days p.i. ([3]; 50 μg/ml): 64
p24 3 days p.i. ([3]; 50 μg/ml): neg
MEAN SYNCYTIA 3 days p.i. ([3]; 100 μg/ml): Toxic
MEAN SYNCYTIA 3 days p.i. ([3]; 200 μg/ml): Toxic
p24 Day 2 ([2]; 12 μg/ml): 3050 pg/mL
p24 % of VIRUS CONTROL ([2]; 12 μg/ml): 95%
p24 Day 2 ([2]; 25 μg/ml): 4820 pg/mL
p24 % of VIRUS CONTROL ([2]; 25 μg/ml): 100%
p24 Day 2 ([2]; 50 μg/ml): 2820 pg/mL
p24 % of VIRUS CONTROL ([2]; 50 μg/ml): 88%
p24 Day 2 ([2]; 100 μg/ml): 1930 pg/mL
p24 % of VIRUS CONTROL ([2]; 100 μg/ml): 60%

poly{imino[2,2'-disulfo(1,1'-biphenyl)-4,4'-diyl]iminocarbonyl-1,4-phenylenecarbonyl}, alpha-{[(4-methylphenyl)amino]carbonyl}-omega-[(4-methylphenyl)amino]- [Example 8A]
TD50 [5]: > 100 µg/mL
ED50 [6]: 1.5 µg/mL
P24 ([7]; Table II, 1 μg/mL): 4.3 × 10^4 units/mL
SYNCYTIA (2 DAYS) MEAN ([7]; Table II, 1 μg/mL): 3
SYNCYTIA % ([7]; Table II, 1 μg/mL): 7%
P24 % ([7]; Table II, 1 μg/mL): 12%
P24 ([7]; Table II, 3 μg/mL): 4.4 × 10^4 units/mL
SYNCYTIA (2 DAYS) MEAN ([7]; Table II, 3 μg/mL): 0
SYNCYTIA % ([7]; Table II, 3 μg/mL): 0%
P24 % ([7]; Table II, 3 μg/mL): 12%
SYNCYTIA (2 DAYS) MEAN ([7]; Table II, 10 μg/mL): 0
SYNCYTIA % ([7]; Table II, 10 μg/mL): 0%
SYNCYTIA (2 DAYS) MEAN ([7]; Table II, 30 μg/mL): 0
SYNCYTIA % ([7]; Table II, 30 μg/mL): 0%
SYNCYTIA (2 DAYS) MEAN ([7]; Table II, 100 μg/mL): 0
SYNCYTIA % ([7]; Table II, 100 μg/mL): 0%
P24 ([7]; Table III, 5 μg/mL): 268599 pg/mL
SYNCYTIA MEAN ([7]; Table III, 5 μg/mL): 35
SYNCYTIA % ([7]; Table III, 5 μg/mL): 51%
P24 % ([7]; Table III, 5 μg/mL): 81%
P24 ([7]; Table III, 50 μg/mL): 11600 pg/mL
SYNCYTIA MEAN ([7]; Table III, 50 μg/mL): 0
P24 % ([7]; Table III, 50 μg/mL): 3.5%
SYNCYTIA MEAN ([7]; Table III, 500 μg/mL): 0

poly{imino[2,2'-disulfo(1,1'-biphenyl)-4,4'-diyl]iminocarbonyl-1,4-phenylenecarbonyl}, alpha-{[(4-methylphenyl)amino]carbonyl}-omega-[(4-methylphenyl)amino]- [Example 8B]
TD50 [5]: > 100 µg/mL
ED50 [6]: 2.1 µg/mL

poly{imino[2,2'-disulfo(1,1'-biphenyl)-4,4'-diyl]iminocarbonyl-1,4-phenylenecarbonyl}, alpha-{[(4-methylphenyl)amino]carbonyl}-omega-[(4-methylphenyl)amino]- [Example 8C]
TD50 [5]: > 100 µg/mL
ED50 [6]: 2.2 µg/mL

poly{oxy[2,2'-disulfo(1,1'-biphenyl)-4,4'-diyl]oxy-carbonyl-1,4-phenylenecarbonyl}- [Example 6]
MEAN SYNCYTIA 3 days p.i. ([3]; 25 μg/ml): 25
p24 3 days p.i. ([3]; 25 μg/ml): 6800 pg/mL
MEAN SYNCYTIA 3 days p.i. ([3]; 50 μg/ml): 12
p24 3 days p.i. ([3]; 50 μg/ml): neg
MEAN SYNCYTIA 3 days p.i. ([3]; 100 μg/ml): 0
p24 3 days p.i. ([3]; 100 μg/ml): neg
MEAN SYNCYTIA 3 days p.i. ([3]; 200 μg/ml): 0
p24 Day 2 ([2]; 12 μg/ml): neg
p24 % of VIRUS CONTROL ([2]; 12 μg/ml): 0%
p24 Day 2 ([2]; 25 μg/ml): neg
p24 % of VIRUS CONTROL ([2]; 25 μg/ml): 0%
SYNCYTIA Day 2 ([2]; 50 μg/ml): 0
p24 Day 2 ([2]; 50 μg/ml): neg
p24 % of VIRUS CONTROL ([2]; 50 μg/ml): 0%
SYNCYTIA Day 2 ([2]; 100 μg/ml): 0
p24 Day 2 ([2]; 100 μg/ml): neg
p24 % of VIRUS CONTROL ([2]; 100 μg/ml): 0%

poly{oxy[2,2'-disulfo(1,1'-biphenyl)-4,4'-diyl]oxy-carbonyl}, alpha-[(4-methylphenoxy)carbonyl]-omega-(4-methylphenoxy)- [Example 5]
MEAN SYNCYTIA 3 days p.i. ([3]; 25 μg/ml): > 200
p24 3 days p.i. ([3]; 25 μg/ml): 67 pg/mL
MEAN SYNCYTIA 3 days p.i. ([3]; 50 μg/ml): 68
p24 3 days p.i. ([3]; 50 μg/ml): neg
MEAN SYNCYTIA 3 days p.i. ([3]; 100 μg/ml): 22
p24 3 days p.i. ([3]; 100 μg/ml): neg
MEAN SYNCYTIA 3 days p.i. ([3]; 200 μg/ml): 14
p24 3 days p.i. ([3]; 200 μg/ml): neg
p24 Day 2 ([2]; 12 μg/ml): 3250 pg/mL
p24 % of VIRUS CONTROL ([2]; 12 μg/ml): 100%
p24 Day 2 ([2]; 25 μg/ml): 2320 pg/mL
p24 % of VIRUS CONTROL ([2]; 25 μg/ml): 73%
p24 Day 2 ([2]; 50 μg/ml): 2780 pg/mL
p24 % of VIRUS CONTROL ([2]; 50 μg/ml): 87%
p24 Day 2 ([2]; 100 μg/ml): 1060 pg/mL
p24 % of VIRUS CONTROL ([2]; 100 μg/ml): 33%
